Patent publication US7396837B2, “Antitumoral analogs of lamellarins” (Pharma Mar, S.A.U., priority 2002, dated 2008)

Experiments:
K-562 = assay: SRB colorimetric cell growth inhibition assay, K-562; assay type: cell-based; conditions: Homo sapiens, K562, K-562; for GI50: GI=growth inhibition, read-out: GI50 K-562; for CC50: cell killing (cytotoxic effect), read-out: LC50 K-562; for IC (TGI): total growth inhibition (cytostatic effect), read-out: TGI K-562
Procedure, shortened: (§1)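 Cells are kept under uninterrupted exposure to compound. Staining with sulforhodamine B then measures cell growth and viability. Triplicate data give mean ± SD, from which growth inhibition, total growth inhibition and lethal concentration values follow.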

human topoisomerase I = molecular target: T1, human topoisomerase I (Homo sapiens, UniProt P11387); assay: Topoisomerase I DNA relaxation assay (supercoiled plasmid DNA); assay type: biochemical; conditions: for stimulation of DNA cleavage by topoisomerase I / inhibition of topoisomerase I (nicked DNA band) in DNA relaxation assay: supercoiled plasmid DNA, each compound tested at 1 μM, agarose gel with ethidium bromide
T1 sequence (P11387 1-765): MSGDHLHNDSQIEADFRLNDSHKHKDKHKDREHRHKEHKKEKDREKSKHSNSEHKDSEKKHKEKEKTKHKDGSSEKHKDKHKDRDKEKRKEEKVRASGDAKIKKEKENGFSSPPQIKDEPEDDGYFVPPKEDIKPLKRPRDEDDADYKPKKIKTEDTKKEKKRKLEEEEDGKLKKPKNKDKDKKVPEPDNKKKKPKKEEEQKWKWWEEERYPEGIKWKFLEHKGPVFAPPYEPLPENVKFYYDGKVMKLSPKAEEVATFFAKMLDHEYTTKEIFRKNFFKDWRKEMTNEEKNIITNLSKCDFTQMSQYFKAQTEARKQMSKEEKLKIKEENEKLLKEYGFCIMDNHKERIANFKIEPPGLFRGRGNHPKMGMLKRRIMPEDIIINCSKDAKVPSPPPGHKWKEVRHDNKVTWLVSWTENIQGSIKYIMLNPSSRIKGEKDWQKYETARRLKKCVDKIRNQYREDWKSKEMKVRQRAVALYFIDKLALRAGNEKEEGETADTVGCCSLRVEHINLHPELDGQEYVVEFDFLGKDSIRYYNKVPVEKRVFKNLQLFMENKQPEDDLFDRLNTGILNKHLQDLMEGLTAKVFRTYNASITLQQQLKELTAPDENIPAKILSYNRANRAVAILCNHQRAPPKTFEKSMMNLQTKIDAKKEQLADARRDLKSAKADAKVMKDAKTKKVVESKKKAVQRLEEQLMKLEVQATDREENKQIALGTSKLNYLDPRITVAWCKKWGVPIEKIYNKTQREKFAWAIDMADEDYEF
Procedure, shortened: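 Supercoiled plasmid DNA was relaxed by human topoisomerase I with or without test compound at 1 μM. Products were resolved by agarose gel electrophoresis with ethidium bromide staining.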

PANC-1 = assay: SRB colorimetric cell growth inhibition assay, PANC-1; assay type: cell-based; conditions: Homo sapiens, PANC-1, PANC-1; for GI50: GI=growth inhibition, read-out: GI50 PANC-1; for CC50: cell killing (cytotoxic effect), read-out: LC50 PANC-1; for IC (TGI): total growth inhibition (cytostatic effect), read-out: TGI PANC-1
Procedure, shortened: as §1

LoVo = assay: SRB colorimetric cell growth inhibition assay, LoVo; assay type: cell-based; conditions: Homo sapiens, LoVo; for GI50: GI=growth inhibition, read-out: GI50 LOVO; for CC50: cell killing (cytotoxic effect), read-out: LC50 LOVO; for IC (TGI): total growth inhibition (cytostatic effect), read-out: TGI LOVO
Procedure, shortened: as §1

LNCaP = assay: SRB colorimetric cell growth inhibition assay, LNCaP; assay type: cell-based; conditions: Homo sapiens, LNCaP, LN-caP; for GI50: GI=growth inhibition, read-out: GI50 LN-caP; for CC50: cell killing (cytotoxic effect), read-out: LC50 LN-caP; for IC (TGI): total growth inhibition (cytostatic effect), read-out: TGI LN-caP
Procedure, shortened: as §1

SK-MEL-28 = assay: SRB colorimetric cell growth inhibition assay, SK-MEL-28; assay type: cell-based; conditions: Homo sapiens, SK-MEL-28, MEL-28; for GI50: GI=growth inhibition, read-out: GI50 MEL-28; for CC50: cell killing (cytotoxic effect), read-out: LC50 MEL-28; for IC (TGI): total growth inhibition (cytostatic effect), read-out: TGI MEL-28
Procedure, shortened: as §1

HT-29 = assay: SRB colorimetric cell growth inhibition assay, HT-29; assay type: cell-based; conditions: Homo sapiens, HT-29, HT-29; for GI50: GI=growth inhibition, read-out: GI50 HT-29; for CC50: cell killing (cytotoxic effect), read-out: LC50 HT-29; for IC (TGI): total growth inhibition (cytostatic effect), read-out: TGI HT-29
Procedure, shortened: as §1

A-549 = assay: SRB colorimetric cell growth inhibition assay, A-549; assay type: cell-based; conditions: Homo sapiens, A549, A-549; for GI50: GI=growth inhibition, read-out: GI50 A-549; for CC50: cell killing (cytotoxic effect), read-out: LC50 A-549; for IC (TGI): total growth inhibition (cytostatic effect), read-out: TGI A-549
Procedure, shortened: as §1

DU-145 = assay: SRB colorimetric cell growth inhibition assay, DU-145; assay type: cell-based; conditions: Homo sapiens, DU-145, DU-145; for GI50: GI=growth inhibition, read-out: GI50 DU-145; for CC50: cell killing (cytotoxic effect), read-out: LC50 DU-145; for IC (TGI): total growth inhibition (cytostatic effect), read-out: TGI DU-145
Procedure, shortened: as §1

IGROV = assay: SRB colorimetric cell growth inhibition assay, IGROV; assay type: cell-based; conditions: Homo sapiens, IGROV; for GI50: GI=growth inhibition, read-out: GI50 IGROV; for CC50: cell killing (cytotoxic effect), read-out: LC50 IGROV; for IC (TGI): total growth inhibition (cytostatic effect), read-out: TGI IGROV
Procedure, shortened: as §1

LoVo-Dox = assay: SRB colorimetric cell growth inhibition assay, LoVo-Dox (MDR); assay type: cell-based; conditions: Homo sapiens, LOVO-DOX; for GI50: GI=growth inhibition, read-out: GI50 LOVO-DOX; for CC50: cell killing (cytotoxic effect), read-out: LC50 LOVO-DOX; for IC (TGI): total growth inhibition (cytostatic effect), read-out: TGI LOVO-DOX
Procedure, shortened: as §1

SK-BR-3 = assay: SRB colorimetric cell growth inhibition assay, SK-BR-3; assay type: cell-based; conditions: Homo sapiens, SK-BR-3, SK-BR-3; for GI50: GI=growth inhibition, read-out: GI50 SK-BR-3; for CC50: cell killing (cytotoxic effect), read-out: LC50 SK-BR-3; for IC (TGI): total growth inhibition (cytostatic effect), read-out: TGI SK-BR-3
Procedure, shortened: as §1

IGROV-ET = assay: SRB colorimetric cell growth inhibition assay, IGROV-ET (ET-743 resistant); assay type: cell-based; conditions: Homo sapiens, IGROV-ET; for GI50: GI=growth inhibition, read-out: GI50 IGROV-ET; for CC50: cell killing (cytotoxic effect), read-out: LC50 IGROV-ET; for IC (TGI): total growth inhibition (cytostatic effect), read-out: TGI IGROV-ET
Procedure, shortened: as §1

Structure (SMILES) | GI50 (K-562) [µM] | CC50 (K-562) [µM] | IC (TGI) (K-562) [µM] | stimulation of DNA cleavage by topoisomerase I / inhibition of topoisomerase I (nicked DNA band) in DNA relaxation assay (human topoisomerase I) | GI50 (PANC-1) [µM] | CC50 (PANC-1) [µM] | IC (TGI) (PANC-1) [µM] | GI50 (LoVo) [µM] | CC50 (LoVo) [µM] | IC (TGI) (LoVo) [µM] | GI50 (LNCaP) [µM] | CC50 (LNCaP) [µM] | IC (TGI) (LNCaP) [µM] | GI50 (SK-MEL-28) [µM] | CC50 (SK-MEL-28) [µM] | IC (TGI) (SK-MEL-28) [µM] | GI50 (HT-29) [µM] | CC50 (HT-29) [µM] | IC (TGI) (HT-29) [µM] | GI50 (A-549) [µM] | also measured
COc1cc(-c2c3c4cc(OC)c(OC(=O)CCCCCN)cc4oc(=O)c3n3ccc4cc(OC(=O)CCCCCN)c(OC)cc4c23)ccc1OC(=O)CCCCCN [Compound 169] | 0.068 | 10.5 | 3.21 | inhibit topoisomerase I | 0.152 | 10.5 | 10.5 | 0.159 | 1.42 | 0.418 | 0.0373 | 1.24 | 0.183 | 0.0464 | 10.5 | 0.529 | 2.97 | 10.5 | 10.5 | 0.0646 | stimulation of DNA cleavage by topoisomerase I, concentration-dependent measurements compared with LAM-D (3) (human topoisomerase I; dose-response analysis): equally efficient to (3); CC50 (A-549): 9.74 µM; IC (TGI) (A-549): 1.14 µM; GI50 (DU-145): 0.0151 µM; CC50 (DU-145): 0.0105 µM; IC (TGI) (DU-145): 0.0901 µM; GI50 (IGROV): 0.0471 µM; CC50 (IGROV): 10.5 µM; IC (TGI) (IGROV): 1.92 µM; GI50 (LoVo-Dox): 0.258 µM; CC50 (LoVo-Dox): 1050 µM; IC (TGI) (LoVo-Dox): 0.922 µM; GI50 (SK-BR-3): 0.0387 µM; CC50 (SK-BR-3): 10.5 µM; IC (TGI) (SK-BR-3): 0.132 µM; GI50 (IGROV-ET): 0.0418 µM; CC50 (IGROV-ET): 10.5 µM; IC (TGI) (IGROV-ET): 0.301 µM
COc1cc(-c2c3c4cc(OC)c(OC(=O)[C@H](N)C(C)C)cc4oc(=O)c3n3ccc4cc(OC(=O)[C@H](N)C(C)C)c(OC)cc4c23)ccc1OC(=O)[C@H](N)C(C)C [Compound 17] | 0.0536 | 2.5 | 0.277 | stimulated DNA cleavage by the enzyme | 0.206 | 8.53 | 1.52 | 0.216 | 0.816 | 0.42 | 0.132 | 0.599 | 0.281 | 0.0518 | 0.766 | 0.171 | 0.342 | 8.78 | 0.686 | 0.207 | CC50 (A-549): 8.48 µM; IC (TGI) (A-549): 0.663 µM; GI50 (DU-145): 0.0487 µM; CC50 (DU-145): 2.3 µM; IC (TGI) (DU-145): 0.228 µM; GI50 (IGROV): 0.105 µM; CC50 (IGROV): 4.93 µM; IC (TGI) (IGROV): 0.405 µM; GI50 (LoVo-Dox): 0.384 µM; CC50 (LoVo-Dox): 5.29 µM; IC (TGI) (LoVo-Dox): 1.33 µM; GI50 (SK-BR-3): 0.0803 µM; CC50 (SK-BR-3): 1.22 µM; IC (TGI) (SK-BR-3): 0.286 µM; GI50 (IGROV-ET): 0.162 µM; CC50 (IGROV-ET): 8.78 µM; IC (TGI) (IGROV-ET): 0.544 µM
